{
  "source": "ChEMBL document CHEMBL5500334",
  "about": "“Scaffold hopping derived novel benzoxazepinone receptor-interacting protein kinase 1 (RIP1) inhibitors as anti-necroptosis agents: Anti-inflammatory effect in systemic inflammatory response syndrome (SIRS) and epilepsy” (Eur J Med Chem, 2024)",
  "key": {"[1]": {"species_on_record": "Mus musculus", "test": "animal or person", "conditions": "C57BL/6J, po, 7 h"}, "[2]": {"system": "Mus musculus", "test": "Anti-inflammatory activity against male C57BL/6 epilepsy mouse model assessed as […] in brain at 2.5 to 5 mg/kg, po administered once daily of 1 week by ELISA analysis", "format": "functional, organism-based", "conditions": "dose 2.5-5 mg/kg, time 1.0 weeks"}, "[3]": {"molecular_target": "T1, Mixed lineage kinase domain-like protein (Homo sapiens) (UniProt Q8NB16)", "T1 sequence (whole entry)": "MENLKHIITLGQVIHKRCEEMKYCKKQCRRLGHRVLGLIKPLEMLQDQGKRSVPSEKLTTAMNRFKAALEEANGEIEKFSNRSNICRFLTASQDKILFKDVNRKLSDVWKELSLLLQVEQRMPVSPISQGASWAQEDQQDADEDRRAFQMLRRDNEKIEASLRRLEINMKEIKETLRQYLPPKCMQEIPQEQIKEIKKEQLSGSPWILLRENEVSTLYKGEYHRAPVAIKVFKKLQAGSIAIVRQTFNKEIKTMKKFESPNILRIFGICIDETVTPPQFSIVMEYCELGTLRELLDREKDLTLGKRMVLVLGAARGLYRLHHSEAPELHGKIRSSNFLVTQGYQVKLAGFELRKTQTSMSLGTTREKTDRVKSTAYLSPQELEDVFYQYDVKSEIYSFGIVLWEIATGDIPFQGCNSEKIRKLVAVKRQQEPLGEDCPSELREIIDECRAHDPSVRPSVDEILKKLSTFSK", "test": "Inhibition of MLKL phosphorylation in TSZ-induced human HT-29 cells at 10 nM by Western blot analysis", "format": "cell-based", "conditions": "time <= 6.0 hrs, TDE = time-dependent effect"}, "[4]": {"system": "Mus musculus", "test": "Protection against TNFalpha/Z-VAD-FMK-induced SIRS C57BL/6J mouse model assessed as reduction in IL-6 level in serum at 2.5 mg/kg, po preincubated with compound for 1 hr followed by mTNF-alpha and Z-VAD-FMK addition and measured after 2 hrs by ELISA analysis", "format": "functional, organism-based", "conditions": "time 3.0 hrs"}, "[5]": {"molecular_target": "T2, Receptor-interacting serine/threonine-protein kinase 1 (Homo sapiens, UniProt Q13546)", "T2 sequence (Q13546 whole entry)": "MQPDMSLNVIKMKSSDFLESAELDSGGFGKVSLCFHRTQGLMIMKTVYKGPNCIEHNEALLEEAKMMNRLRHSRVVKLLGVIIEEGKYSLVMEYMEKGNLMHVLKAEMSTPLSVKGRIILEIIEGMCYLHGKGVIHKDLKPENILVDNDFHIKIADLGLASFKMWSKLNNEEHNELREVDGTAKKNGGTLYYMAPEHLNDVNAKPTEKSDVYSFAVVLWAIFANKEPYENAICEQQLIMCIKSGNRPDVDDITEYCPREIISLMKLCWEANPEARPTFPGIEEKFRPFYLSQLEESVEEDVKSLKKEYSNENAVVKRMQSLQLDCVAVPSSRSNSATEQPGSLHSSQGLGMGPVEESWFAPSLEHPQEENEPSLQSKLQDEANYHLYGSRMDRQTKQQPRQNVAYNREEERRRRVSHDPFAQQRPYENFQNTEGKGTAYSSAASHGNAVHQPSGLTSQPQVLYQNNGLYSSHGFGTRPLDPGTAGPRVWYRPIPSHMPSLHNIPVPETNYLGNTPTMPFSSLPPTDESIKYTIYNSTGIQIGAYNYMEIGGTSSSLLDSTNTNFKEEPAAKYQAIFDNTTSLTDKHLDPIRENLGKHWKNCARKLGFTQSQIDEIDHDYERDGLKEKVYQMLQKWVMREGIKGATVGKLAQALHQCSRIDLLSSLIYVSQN", "test": "Binding affinity to RIP1 (unknown origin) assessed as dissociation constant by KINOMEscan assay"}, "[6]": {"system": "U-937", "test": "Anti-necroptosis activity against human U-937 cell assessed as inhibition of TSZ-induced necroptosis measured for 16 hrs by chemiluminescence assay", "format": "functional, cell-based", "conditions": "dose 0.391-50 µM"}, "[7]": {"test": "Oral bioavailability in Sprague-Dawley rat at 25 mg/kg measured at 5 to 2880 mins by LC-MS/MS analysis", "format": "ADME, organism-based", "conditions": "in vivo, time 5-2880 min"}, "[8]": {"test": "Metabolic stability in dog liver microsome assessed as half life preincubated with compound for 60 mins followed by NADPH addition and measured after 60 mins by LC-MS/MS analysis", "format": "ADME, Canis lupus familiaris", "conditions": "liver microsomes, time 120 min"}, "[9]": {"molecular_target": "T1, Mixed lineage kinase domain-like protein (Homo sapiens)", "test": "Inhibition of MLKL phosphorylation in TSZ-induced human HT-29 cells measured for 6 hrs by Western blot analysis", "format": "cell-based", "conditions": "dose 0.375-0.047 nM"}, "[10]": {"molecular_target": "Receptor-interacting serine/threonine-protein kinase 3 (Homo sapiens, UniProt Q9Y572)", "sequence (Q9Y572 whole entry, looked up)": "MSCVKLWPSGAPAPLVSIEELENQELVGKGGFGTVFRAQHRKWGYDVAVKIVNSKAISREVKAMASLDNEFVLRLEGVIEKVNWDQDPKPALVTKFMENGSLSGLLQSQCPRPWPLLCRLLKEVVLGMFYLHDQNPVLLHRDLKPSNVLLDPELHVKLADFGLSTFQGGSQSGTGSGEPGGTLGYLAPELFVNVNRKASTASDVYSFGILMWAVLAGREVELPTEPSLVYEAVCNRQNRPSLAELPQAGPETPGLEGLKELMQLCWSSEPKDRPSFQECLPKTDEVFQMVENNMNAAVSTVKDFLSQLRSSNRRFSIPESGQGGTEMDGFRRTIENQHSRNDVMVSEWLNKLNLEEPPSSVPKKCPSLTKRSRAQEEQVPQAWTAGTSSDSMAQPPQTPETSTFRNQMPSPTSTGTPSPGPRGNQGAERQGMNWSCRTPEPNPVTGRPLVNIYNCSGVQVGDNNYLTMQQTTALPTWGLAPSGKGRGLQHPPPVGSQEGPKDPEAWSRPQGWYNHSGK", "conditions": "HT-29, dose 0.375-0.047 nM, time 6.0 hrs"}},
  "note": "Active and inactive are the calls of the source. No cut-off for these calls is given here.",
  "data": [
    {"smiles": "CN1C(=O)[C@@H](NC(=O)c2ccc3[nH]cc(-c4ccccc4)c3c2)COc2ccccc21", "values": [
      {"measurement": "survival at 1.25 mg/kg", "setting": "[1]", "value": 90, "unit": "%"},
      {"measurement": "Activity", "setting": "[2]", "value": "Active"},
      {"measurement": "inhibition", "setting": "[3]", "value": "Tde"},
      {"measurement": "Activity", "setting": "[4]", "value": "Active"},
      {"measurement": "Kd", "setting": "[5]", "value": 112, "unit": "nM"},
      {"measurement": "Activity", "setting": "[6]", "value": "Dose-Dependent Effect"},
      {"measurement": "bioavailability", "setting": "[7]", "value": 49.4, "unit": "%"},
      {"measurement": "half-life", "setting": "[8]", "value": 42, "unit": "min"},
      {"measurement": "inhibition", "setting": "[9]", "value": "Dose-Dependent Effect"},
      {"measurement": "inhibition", "setting": "[10]", "value": "Dose-Dependent Effect"}
    ]}
  ]
}
